The test concerns BDF1 mice, s.c. Lewis lung carcinoma, T/C %. Kind of test: NCI In Vivo Anticancer Drug Screen. Data for tumor model Lewis Lung Carcinoma (subcutaneous) in B6D2F1 (BDF1) mice. A digest of the protocol: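 The value reflects a ratio in which the treated cohort's survival time or tumour size is compared against mice receiving only vehicle.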
Where [1] appears, read: endpoint: median survival time, dose: 50.0 mg/kg/injection, schedule: Q01DX009 (ip), vehicle: saline with Tween-80, higher = longer survival.
The mark [2] stands for this setting: endpoint: median survival time, dose: 100.0 mg/kg/injection, schedule: Q01DX009 (ip), vehicle: saline with Tween-80, higher = longer survival.
[3] abbreviates: endpoint: median survival time, dose: 200.0 mg/kg/injection, schedule: Q01DX009 (ip), vehicle: saline with Tween-80, higher = longer survival.
[4] abbreviates: endpoint: median survival time, dose: 25.0 mg/kg/injection, schedule: Q01DX009 (ip), vehicle: saline with Tween-80, higher = longer survival.

Where “and” joins values, the source holds several entries; their conditions need not be identical. Identical values can stand only once. Records with an inconclusive call do not appear.

With `ClCCn1cnc2c(SCc3ccccc3)ncnc21`, the T/C by setting is: (endpoint: mean tumor weight, dose: 60.0 mg/kg/injection, schedule: Q01DX011 (ip), vehicle: other, higher = larger tumour) 107 % of control; (endpoint: mean tumor weight, dose: 120.0 mg/kg/injection, schedule: Q01DX011 (ip), vehicle: other, higher = larger tumour) 77 % of control; (endpoint: mean tumor weight, dose: 240.0 mg/kg/injection, schedule: Q01DX011 (ip), vehicle: other, higher = larger tumour) 46 % of control.

For the molecule `COc1cc(NC(=O)CN(CCCl)CCCl)cc(OC)c1OC`, the T/C by setting is: under setting [1], 88 % of control; under setting [2], 98 % of control; under setting [3], 94 % of control.

For `O=NN(CCF)C(=O)NC1CCSCC1`, the T/C was 114 % of control (endpoint: median survival time, dose: 2.5 mg/kg/injection, schedule: Q01DX009 (ip), vehicle: saline with Tween-80, higher = longer survival); 103 % of control (endpoint: median survival time, dose: 2.5 mg/kg/injection, schedule: Q01DX009 (ip), vehicle: saline, higher = longer survival); 191 % of control (endpoint: median survival time, dose: 5.0 mg/kg/injection, schedule: Q01DX009 (ip), vehicle: saline with Tween-80, higher = longer survival); 113 % of control (endpoint: median survival time, dose: 5.0 mg/kg/injection, schedule: Q01DX009 (ip), vehicle: saline, higher = longer survival); 204 % of control (endpoint: median survival time, dose: 10.0 mg/kg/injection, schedule: Q01DX009 (ip), vehicle: saline, higher = longer survival); 279 % of control (endpoint: median survival time, dose: 13.0 mg/kg/injection, schedule: Q04DX004 (ip), vehicle: saline with Tween-80, higher = longer survival). The T/C (endpoint: median survival time, dose: 18.0 mg/kg/injection, schedule: Q04DX004 (ip), vehicle: saline with Tween-80, higher = longer survival) was 194 % of control and 345 % of control; the T/C (endpoint: median survival time, dose: 20.0 mg/kg/injection, schedule: Q01DX009 (ip), vehicle: saline, higher = longer survival) is 108 % of control; the T/C (endpoint: median survival time, dose: 23.0 mg/kg/injection, schedule: Q04DX004 (ip), vehicle: saline with Tween-80, higher = longer survival) was 122 % of control; the T/C (endpoint: median survival time, dose: 25.0 mg/kg/injection, schedule: Q07DX002 (ip), vehicle: saline with Tween-80, higher = longer survival) is 190 % of control and 381 % of control; the T/C (endpoint: median survival time, dose: 39.0 mg/kg/injection, schedule: Q07DX002 (ip), vehicle: saline with Tween-80, higher = longer survival) is 198 % of control; the T/C (endpoint: median tumor weight (est.), dose: 14.0 mg/kg/injection, schedule: Q01DX001 (ip), vehicle: saline with Tween-80, higher = larger tumour) was 53 % of control. Moreover, the T/C (endpoint: median tumor weight (est.), dose: 27.0 mg/kg/injection, schedule: Q01DX001 (ip), vehicle: saline with Tween-80, higher = larger tumour) is 8 % of control.

Take `C/C(=C\c1ccc(C)cc1)[N+](=O)[O-]`: the T/C by setting is: under setting [4], 96 % of control; under setting [1], 95 % of control; under setting [2], 94 % of control.

In the case of `O=[N+]([O-])c1ccc(/C=N/c2ncc(Br)s2)o1`, the T/C (endpoint: median survival time, dose: 6.25 mg/kg/injection, schedule: Q01DX009 (ip), vehicle: Klucel (hydroxypropylcellulose) (HPC), higher = longer survival) was 89 % of control and the T/C (endpoint: median survival time, dose: 12.5 mg/kg/injection, schedule: Q01DX009 (ip), vehicle: Klucel (hydroxypropylcellulose) (HPC), higher = longer survival) is 109 % of control.

On to `CCSC(=O)N1c2ccc(OC)cc2C=CC1C#N` (stereo unspecified), for which the T/C is 122 % of control under setting [2]; 102 % of control under setting [3]; 108 % of control (endpoint: median survival time, dose: 400.0 mg/kg/injection, schedule: Q01DX009 (ip), vehicle: saline with Tween-80, higher = longer survival).

Take `O=C1N[C@@H]([C@H]2CC[C@H](Cl)CN2)C(=O)N[C@H]1[C@H]1CC[C@H](Cl)CN1`: the T/C reads like this: (endpoint: median survival time, dose: 2.7 mg/kg/injection, schedule: Q01DX009 (ip), vehicle: saline, higher = longer survival) 102 % of control; (endpoint: median survival time, dose: 4.4 mg/kg/injection, schedule: Q04DX003 (ip), vehicle: saline, higher = longer survival) 99 % of control; (endpoint: median survival time, dose: 6.5 mg/kg/injection, schedule: Q04DX003 (ip), vehicle: saline, higher = longer survival) 105 % of control; (endpoint: median survival time, dose: 9.0 mg/kg/injection, schedule: Q01DX001 (ip), vehicle: saline, higher = longer survival) 91 % of control; (endpoint: median survival time, dose: 13.0 mg/kg/injection, schedule: Q01DX001 (ip), vehicle: saline, higher = longer survival) 101 % of control; (endpoint: median survival time, dose: 20.0 mg/kg/injection, schedule: Q01DX001 (ip), vehicle: saline, higher = longer survival) 100 % of control.

On to `O=C(O)C(=O)c1ccc(-c2ccccc2)cc1`, for which the T/C (endpoint: mean tumor weight, dose: 35.0 mg/kg/injection, schedule: Q01DX011 (ip), vehicle: methylcellulose (MC), higher = larger tumour) is 82 % of control; the T/C (endpoint: mean tumor weight, dose: 50.0 mg/kg/injection, schedule: Q01DX011 (ip), vehicle: methylcellulose (MC), higher = larger tumour) is 68 % of control; the T/C (endpoint: mean tumor weight, dose: 75.0 mg/kg/injection, schedule: Q01DX011 (ip), vehicle: methylcellulose (MC), higher = larger tumour) is 52 % of control; the T/C (endpoint: mean tumor weight, dose: 110.0 mg/kg/injection, schedule: Q01DX011 (ip), vehicle: methylcellulose (MC), higher = larger tumour) is 52 % of control.

With `CS(=O)(=O)OCCC(=O)N1CCN(C(=O)CCOS(C)(=O)=O)CC1`, the T/C is 85 % of control (endpoint: mean tumor weight, dose: 12.5 mg/kg/injection, schedule: Q01DX011 (ip), vehicle: saline, higher = larger tumour); 66 % of control (endpoint: mean tumor weight, dose: 25.0 mg/kg/injection, schedule: Q01DX011 (ip), vehicle: saline, higher = larger tumour); 85 % of control (endpoint: mean tumor weight, dose: 50.0 mg/kg/injection, schedule: Q01DX011 (ip), vehicle: saline, higher = larger tumour); 46 % of control (endpoint: mean tumor weight, dose: 100.0 mg/kg/injection, schedule: Q01DX011 (ip), vehicle: saline, higher = larger tumour); 109 % of control (endpoint: median survival time, dose: 1.56 mg/kg/injection, schedule: Q01DX009 (ip), vehicle: saline, higher = longer survival); 103 % of control (endpoint: median survival time, dose: 3.12 mg/kg/injection, schedule: Q01DX009 (ip), vehicle: saline, higher = longer survival). The T/C (endpoint: median survival time, dose: 6.25 mg/kg/injection, schedule: Q01DX009 (ip), vehicle: saline, higher = longer survival) was 106 % of control; the T/C (endpoint: median survival time, dose: 12.5 mg/kg/injection, schedule: Q01DX009 (ip), vehicle: saline, higher = longer survival) was 103 % of control; the T/C (endpoint: median survival time, dose: 25.0 mg/kg/injection, schedule: Q01DX009 (ip), vehicle: saline, higher = longer survival) is 102 % of control; the T/C (endpoint: median survival time, dose: 50.0 mg/kg/injection, schedule: Q01DX009 (ip), vehicle: saline, higher = longer survival) was 114 % of control.

On to `CN(C)c1nc(N(C)C)nc(N(C)C)n1`, for which the T/C is, setting by setting: (endpoint: median survival time, dose: 6.25 mg/kg/injection, schedule: Q08HX024 (ip), vehicle: Klucel (hydroxypropylcellulose) (HPC), higher = longer survival) 106 % of control; (endpoint: median survival time, dose: 12.5 mg/kg/injection, schedule: Q01DX009 (ip), vehicle: saline with Tween-80, higher = longer survival) 93 % of control and 102 % of control; under setting [4], 97 % of control and 102 % of control; (endpoint: median survival time, dose: 25.0 mg/kg/injection, schedule: Q08HX024 (ip), vehicle: Klucel (hydroxypropylcellulose) (HPC), higher = longer survival) 112 % of control; under setting [1], 103 % of control and 110 % of control; under setting [2], 102 % of control.

For the molecule `COc1cc(C2c3cc4c(cc3CC3COC(=O)C32)OCO4)cc(OC)c1O` (stereo unspecified), the T/C (endpoint: median survival time, dose: 0.5 mg/kg/injection, schedule: Q01DX009 (ip), vehicle: saline with Tween-80, higher = longer survival) was 104 % of control; the T/C (endpoint: median survival time, dose: 1.0 mg/kg/injection, schedule: Q01DX009 (ip), vehicle: saline with Tween-80, higher = longer survival) was 101 % of control; the T/C (endpoint: median survival time, dose: 2.0 mg/kg/injection, schedule: Q01DX009 (ip), vehicle: saline with Tween-80, higher = longer survival) was 107 % of control.

The values are drawn from PubChem BioAssay AID270 (DTP/NCI, 2004).
